Assay results taken from patent US20230119539A1, “TRACELESS LINKERS AND PROTEIN-CONJUGATES THEREOF” (Regeneron Pharmaceuticals, Inc., priority 2019, published 2023).

Experiments:
[1] = pH stability of quenched linker-payloads in buffers (LCMS); format: physicochemical
Procedure: To a solution of compound (payloads or quenched-linker-payloads) in DMSO (0.2-1.0 mg/mL) was added corresponding PBS buffer (V(buffer)/V(DMSO)=5) to give test samples (pH 3, 4, 5, 6, 7.4, and 8.5, or other special pH). The test samples were incubated at RT for at least 3 days and monitored by LCMS (i.e., at 1 hr, 2 hr, 4 hr, 8 hr, and 1 day, 2 day, 3 day, 4 day, 5 day, 6 day, 7 day, 8 day, 9 day, and 21 day time points). Initial concentrations of the samples were 0.2 mg/mL (DMSO/buffer, v/v=1/5). […] The payloads and quenched linker-payloads were mostly stable at pH >5.0, 6.0, 7.4 and 8.5 after 3 days. In more acidic conditions, such as pH 1.0, the payloads or linker-payloads were easily cleaved to release D*-OH.

[2] = Metabolic stability with human liver microsomes; format: in vitro ADME; settings: for Percent Remaining (%) / Area ratio of III formed from PIII-1: Mean
Procedure: The metabolic stability of payload PIII-1 incubated with human liver microsomes was evaluated and the results were shown in the Table 7e below.

[3] = buffer, 1 day, 0.2 mg/mL, pH 7.4
[4] = buffer, 2 day, 0.2 mg/mL, pH 7.4
[5] = buffer, 7 day, 0.2 mg/mL, pH 7.4

## CCCC1O[C@@H]2C[C@H]3[C@@H]4CCC5=CC(=O)C=C[C@]5(C)[C@H]4[C@@H](O)C[C@]3(C)[C@]2(C(=O)COCNC(=O)CNC(=O)OCc2ccc(O[C@@H]3O[C@H](CO)[C@@H](O)[C@H](O)[C@H]3O)c(C(=O)NCCNC(=O)COC3C#CCCCCC3)c2)O1 (stereo partly drawn) [L18-PII-1, COT-EDA-(GLC)PAB-G-NHCH2-Bud]
[1]; buffer, 1 day, 0.2 mg/mL, pH 4
  LP: percentage of linker-payloads remaining: 100%
[1]; buffer, 1 day, 0.2 mg/mL, pH 5
  LP: percentage of linker-payloads remaining: 100%
[1]; buffer, 1 day, 0.2 mg/mL, pH 6
  LP: percentage of linker-payloads remaining: 100%
[1]; [3]
  LP: percentage of linker-payloads remaining: 100%
[1]; buffer, 2 day, 0.2 mg/mL, pH 4
  LP: percentage of linker-payloads remaining: 100%
[1]; buffer, 2 day, 0.2 mg/mL, pH 5
  LP: percentage of linker-payloads remaining: 100%
[1]; buffer, 2 day, 0.2 mg/mL, pH 6
  LP: percentage of linker-payloads remaining: 100%
[1]; [4]
  LP: percentage of linker-payloads remaining: 100%
[1]; buffer, 7 day, 0.2 mg/mL, pH 4
  LP: percentage of linker-payloads remaining: 100%
[1]; buffer, 7 day, 0.2 mg/mL, pH 5
  LP: percentage of linker-payloads remaining: 100%
[1]; buffer, 7 day, 0.2 mg/mL, pH 6
  LP: percentage of linker-payloads remaining: 100%
[1]; [5]
  LP: percentage of linker-payloads remaining: 100%
[1]; pH 4.0, day 1
  P: percentage of budesonide released from the linker-payloads: 0%
[1]; pH 4.0, day 2
  P: percentage of budesonide released from the linker-payloads: 0%
[1]; pH 4.0, day 7
  P: percentage of budesonide released from the linker-payloads: 0%
[1]; pH 5.0, day 1
  P: percentage of budesonide released from the linker-payloads: 0%
[1]; pH 5.0, day 2
  P: percentage of budesonide released from the linker-payloads: 0%
[1]; pH 5.0, day 7
  P: percentage of budesonide released from the linker-payloads: 0%
[1]; pH 6.0, day 1
  P: percentage of budesonide released from the linker-payloads: 0%
[1]; pH 6.0, day 2
  P: percentage of budesonide released from the linker-payloads: 0%
[1]; pH 6.0, day 7
  P: percentage of budesonide released from the linker-payloads: 0%
[1]; pH 7.4, day 1
  P: percentage of budesonide released from the linker-payloads: 0%
[1]; pH 7.4, day 2
  P: percentage of budesonide released from the linker-payloads: 0%
[1]; pH 7.4, day 7
  P: percentage of budesonide released from the linker-payloads: 0%

## CCCC1OC2CC3C4CCC5=CC(=O)C=CC5(C)C4C(O)CC3(C)C2(C(=O)COC2CCN2C(=O)CNC(=O)CCOCCOCCOCCOCCNC(=O)CCC(=O)N2Cc3ccccc3-c3c(nnn3CCOCCOCCOCCOCCC(=O)NCCS(=O)(=O)O)-c3ccccc32)O1 (mixture of isomers) [Q1L6-PII-13]
[1]; pH 4.0, day 1
  LP: percentage of linker-payloads remaining: 100%
  P: percentage of budesonide released from the linker-payloads: 0%
[1]; pH 4.0, day 2
  LP: percentage of linker-payloads remaining: 100%
  P: percentage of budesonide released from the linker-payloads: 0%
[1]; pH 4.0, day 7
  LP: percentage of linker-payloads remaining: 100%
  P: percentage of budesonide released from the linker-payloads: 0%
[1]; pH 5.0, day 1
  LP: percentage of linker-payloads remaining: 100%
  P: percentage of budesonide released from the linker-payloads: 0%
[1]; pH 5.0, day 2
  LP: percentage of linker-payloads remaining: 100%
  P: percentage of budesonide released from the linker-payloads: 0%
[1]; pH 5.0, day 7
  LP: percentage of linker-payloads remaining: 100%
  P: percentage of budesonide released from the linker-payloads: 0%
[1]; pH 6.0, day 1
  LP: percentage of linker-payloads remaining: 100%
  P: percentage of budesonide released from the linker-payloads: 0%
[1]; pH 6.0, day 2
  LP: percentage of linker-payloads remaining: 100%
  P: percentage of budesonide released from the linker-payloads: 0%
[1]; pH 6.0, day 7
  LP: percentage of linker-payloads remaining: 100%
  P: percentage of budesonide released from the linker-payloads: 0%
[1]; pH 7.4, day 1
  LP: percentage of linker-payloads remaining: 100%
  P: percentage of budesonide released from the linker-payloads: 0%
[1]; pH 7.4, day 2
  LP: percentage of linker-payloads remaining: 100%
  P: percentage of budesonide released from the linker-payloads: 0%
[1]; pH 7.4, day 7
  LP: percentage of linker-payloads remaining: 100%
  P: percentage of budesonide released from the linker-payloads: 0%

## O=C(c1ccc(F)cc1)C1CCN(CCn2c(=O)[nH]c3ccccc3c2=O)CC1 [ketanserin]
[2]; 0 min
  Percent Remaining (%): 100.00%
[2]; 5 min
  Percent Remaining (%): 81.45%
[2]; 15 min
  Percent Remaining (%): 67.51%
[2]; 30 min
  Percent Remaining (%): 41.90%
[2]; 45 min
  Percent Remaining (%): 36.47%
[2]; human
  CLint scaled: 55.2 mL/min/kg
  half-life: 31.5 min

## CCCC1OC2CC3C4CCC5=CC(=O)C=CC5(C)C4C(O)CC3(C)C2(C(=O)COCN2CCCC(NC(=O)OCc3ccc(NC(=O)C(CCCNC(N)=O)NC(=O)C(NC(=O)CCOCCOCCOCCOCCNC(=O)CCC(=O)N4Cc5ccccc5-c5c(nnn5CCOCCOCCOCCOCCC(=O)NCCS(=O)(=O)O)-c5ccccc54)C(C)C)cc3)C2=O)O1 (mixture of isomers) [Q1L1-PII-12]
[1]; pH 4.0, day 1
  LP: percentage of linker-payloads remaining: 100%
  P: percentage of budesonide released from the linker-payloads: 0%
[1]; pH 4.0, day 2
  LP: percentage of linker-payloads remaining: 100%
  P: percentage of budesonide released from the linker-payloads: 0%
[1]; pH 4.0, day 7
  LP: percentage of linker-payloads remaining: 100%
  P: percentage of budesonide released from the linker-payloads: 0%
[1]; pH 5.0, day 1
  LP: percentage of linker-payloads remaining: 100%
  P: percentage of budesonide released from the linker-payloads: 0%
[1]; pH 5.0, day 2
  LP: percentage of linker-payloads remaining: 100%
  P: percentage of budesonide released from the linker-payloads: 0%
[1]; pH 5.0, day 7
  LP: percentage of linker-payloads remaining: 100%
  P: percentage of budesonide released from the linker-payloads: 0%
[1]; pH 7.4, day 1
  LP: percentage of linker-payloads remaining: 100%
  P: percentage of budesonide released from the linker-payloads: 0%
[1]; pH 7.4, day 2
  LP: percentage of linker-payloads remaining: 100%
  P: percentage of budesonide released from the linker-payloads: 0%
[1]; pH 7.4, day 7
  LP: percentage of linker-payloads remaining: 100%
  P: percentage of budesonide released from the linker-payloads: 0%

## CCCC1O[C@@H]2C[C@H]3[C@@H]4C[C@H](F)C5=CC(=O)C=C[C@]5(C)[C@@]4(F)[C@@H](O)C[C@]3(C)[C@]2(C(=O)CO)O1 (stereo partly drawn) [III from P11I-1]
[2]; 0 min
  Area ratio of III formed from PIII-1: BQL
[2]; 5 min
  Area ratio of III formed from PIII-1: 0.001
[2]; 15 min
  Area ratio of III formed from PIII-1: 0.002
[2]; 30 min
  Area ratio of III formed from PIII-1: 0.001
[2]; 45 min
  Area ratio of III formed from PIII-1: 0.001

## CCCC1O[C@@H]2C[C@H]3[C@@H]4CCC5=CC(=O)C=C[C@]5(C)[C@H]4[C@@H](O)C[C@]3(C)[C@]2(C(=O)COC2CCCN2C(=O)CNC(=O)CCOCCOCCOCCOCCNC(=O)CCC(=O)N2Cc3ccccc3-c3c(nnn3CCOCCOCCOCCOCCC(=O)NCCS(=O)(=O)O)-c3ccccc32)O1 (stereo partly drawn) [Q1L6-PII-9]
[1]; buffer, 1 day, 0.2 mg/mL, pH 4
  LP: percentage of linker-payloads remaining: 30%
[1]; buffer, 1 day, 0.2 mg/mL, pH 6
  LP: percentage of linker-payloads remaining: 100%
[1]; [3]
  LP: percentage of linker-payloads remaining: 100%
[1]; buffer, 2 day, 0.2 mg/mL, pH 4
  LP: percentage of linker-payloads remaining: 10%
[1]; buffer, 2 day, 0.2 mg/mL, pH 6
  LP: percentage of linker-payloads remaining: 100%
[1]; [4]
  LP: percentage of linker-payloads remaining: 100%
[1]; buffer, 7 day, 0.2 mg/mL, pH 4
  LP: percentage of linker-payloads remaining: 0%
[1]; buffer, 7 day, 0.2 mg/mL, pH 6
  LP: percentage of linker-payloads remaining: 92%
[1]; [5]
  LP: percentage of linker-payloads remaining: 100%
[1]; pH 4.0, day 1
  P: percentage of budesonide released from the linker-payloads: 69%
[1]; pH 4.0, day 2
  P: percentage of budesonide released from the linker-payloads: 89%
[1]; pH 4.0, day 7
  P: percentage of budesonide released from the linker-payloads: 99%
[1]; pH 5.0, day 1
  P: percentage of budesonide released from the linker-payloads: 5%
[1]; pH 5.0, day 2
  P: percentage of budesonide released from the linker-payloads: 10%
[1]; pH 5.0, day 7
  P: percentage of budesonide released from the linker-payloads: 28%
[1]; pH 6.0, day 1
  P: percentage of budesonide released from the linker-payloads: 0%
[1]; pH 6.0, day 2
  P: percentage of budesonide released from the linker-payloads: 0%
[1]; pH 6.0, day 7
  P: percentage of budesonide released from the linker-payloads: 8%
[1]; pH 7.4, day 1
  P: percentage of budesonide released from the linker-payloads: 0%
[1]; pH 7.4, day 2
  P: percentage of budesonide released from the linker-payloads: 0%
[1]; pH 7.4, day 7
  P: percentage of budesonide released from the linker-payloads: 0%
